Laboratory results reported in patent publication US7371555B2, “Polypeptides having α-H-α-amino acid amide racemase activity and nucleic acids encoding the same” (DSM IP Assets B.V., priority 2002, dated 2008).

Experiments:
[1] = test system: lyophilized O. anthropi IA cells; assay: α-H-α-amino acid amide racemase activity of lyophilized O. anthropi IA cells; format: biochemical, Ochrobactrum anthropi IA; settings: approximately 72 hours at 40° C., 10 times diluted reaction mixture
Method: O. anthropi IA cells were cultivated in Medium A containing DL-α-amino-ε-caprolactam (2 g/l) as sole nitrogen source. After incubation at 28° C. and 200 rpm for three days (OD620 nm=4.7), cells were harvested by centrifugation, washed in 20 mM HEPES-NaOH buffer of pH 7.7 and lyophilized.
The assay mixture consisted of 10 mM HEPES-NaOH buffer (pH 7.7) containing toluene (2,5 v/v %), pyridoxal-5-phosphate (20 μM), D- or L-leucine amide (2.5 m %) and in some cases EDTA (20 mM). Per assay 150 mg of lyophilized cells were used. Chemical blanks (with the assay mixture without the O. anthropi IA cells) were used as a negative control. All reaction mixtures (including the blanks) were incubated for approximately 72 hours at 40° C. before the reaction was stopped by the addition of 9 volumes of 1 M H3PO4. Finally, the reaction mixtures were analyzed by HPLC to determine the concentrations of D- and L-leucine amide and of D- and L-leucine. o-Phthaldehyde in combination with D-3-mercapto-2-methylpropionic acid was used in this HPLC method as a chiral reagent for the enantioseparation of these amino compounds (Duchateau, et al., J. Chromatogr. (1992) 623:237-245).
In a number of reactions EDTA was added to inhibit L- and/or D-specific amidase(s) present in the O. anthropi IA cells.
Without EDTA, amidases convert the substrate and/or product α-H-α-amino acid amides into α-H-α-amino acids thereby preventing direct detection of the other α-H-α-amino acid amide enantiomer as racemization product. […] Formation of L-leucine from D-leucine amide could not be detected in the chemical blank.

[2] = test system: disintegrated cells of Arthrobacter nicotianae; assay: α-H-α-amino acid amide racemase activity test with disintegrated cells; format: biochemical; settings: incubation time 139 h; 0.79 w/w % D-leucine amide
Method: (§1) After growth of these three strains in Medium A containing 2 g/l of D-α-amino-ε-caprolactam, cells were harvested by centrifugation at 12,000×g. After centrifugation the supernatant was decanted and the wet weight of the pellet was measured. To the pellet, sonification buffer (NaCl, 16 g/l; KCl, 0.74 g/l; Na2HPO4, 0.27 g/l; glucose, 2 g/l; HEPES, 10 g/l, pH 7.0) was added in a 1:2 ratio (wet weight cell pellet:ml buffer). During storage between cell harvest and sonification the pellet was frozen in the sonification buffer at −86° C.
(§2) Sonification was performed with a Soniprep 150 of MSE at maximal amplitude of 20 microns in periods of 10 min. using time intervals of 10 sec. (i.e., 10 sec. sonification, 10 sec. cooling down), cooling the sample on ice/acetone. Each 10 min. the cells were viewed microscopically. The sonification procedure was stopped when >70% of the cells were broken.
(§3) 1 ml Of disintegrated cells of each of the three strains was incubated in a HEPES-NaOH buffer (20 mM) pH 7.7, to which pyridoxal-5-phosphate (0.01 mM) was added as a cofactor and D-leucine amide (60.8 mM) as a substrate in a total volume of 10 ml (0.79 w/w % D-leucine amide). After 0 and 139 hours 1 ml samples were taken (of which the exact weight was measured) and the reaction in these samples was stopped by adding 1 ml methanol (of which the exact weight was measured too; to be able to calculate dilution factors). Stopped reaction mixtures were centrifuged to remove particulates. The supernatants were frozen at −86° C. until HPLC analysis according to the method given in Example 1.

[3] = test system: disintegrated cells of Agrobacterium rhizogenes Na; assay: as above; format: biochemical; settings: incubation time 139 h; 0.79 w/w % D-leucine amide
Method: as §1, §2, §3

[4] = test system: disintegrated cells of Agrobacterium rhizogenes Bi; assay: as above; format: biochemical; settings: incubation time 139 h; 0.79 w/w % D-leucine amide
Method: as §1, §2, §3

Compound: CC(C)C[C@@H](N)C(N)=O [D-leucine amide]
- D-leucine ([1]; with EDTA (20 mM)): 0.007 m %
- D-leucine amide ([1]; with EDTA (20 mM)): 0.24 m %
- L-leucine ([1]; with EDTA (20 mM)): 0.008 m %
- L-leucine amide ([1]; with EDTA (20 mM)): 0.032 m %
- D-leucine ([1]; without EDTA): 0.015 m %
- D-leucine amide ([1]; without EDTA): 0.22 m %
- L-leucine ([1]; without EDTA): 0.044 m %
- L-leucine amide ([1]; without EDTA): <0.001 m %
- D-leucine [2]: 0.002 w/w %
- D-leucine amide [2]: 0.56 w/w %
- L-leucine [2]: 0.068 w/w %
- D-leucine [3]: 0.036 w/w %
- D-leucine amide [3]: 0.51 w/w %
- L-leucine [3]: 0.078 w/w %
- D-leucine [4]: 0.013 w/w %
- D-leucine amide [4]: 0.61 w/w %
- L-leucine [4]: 0.025 w/w %
